Measurements reported in patent US8466151B2, “Compounds and method for treatment of cancer” (Critical Outcome Technologies, Inc., priority 2007, dated 2013).
Like-named read-outs stand apart in the source and are kept apart here.

What was measured:
[1] = tested on: human SHP-77 SCLC cells as xenograft; assay: Inhibition of tumor growth, SHP-77 xenograft in NCr-nu mice; format: in vivo; settings: for maximum number of tumours versus control, saline-treated mice / mean tumour size versus saline-treated mice: SHP-77 xenografts; for maximum number of tumours versus control, saline-treated mice: FIG. 6, not subject to analysis of significance; for mean tumour size versus saline-treated mice: i.p. treatment up to 38 days, p<0.05; for mean tumor volume: SHP-77 small cell lung cancer xenografts, saline control 260±33 mm^3
Description: SHP-77 SCLC cells were grown in culture and injected into each flank of NCr-nu mice (T cell-deficient immunocompromised mice, suitable for growth of this cell line) (2×10^6 cells per injection, in Matrigel™). One day after injection of tumour cells, groups of 5 mice each were injected with 3 mg/kg of COTI-2MO5 or COTI-4MO5 (i.p.), once every 2 days, up to 38 days. Tumour size was estimated at 5, 10, 17, 24, and 38 days, by external caliper measurement. Animals were humanely euthanized after the 38 day tumour measurement.
For comparison, mice (5 mice per group, injected as described above with SHP-77 human tumor cells as described above) and harbouring SHP-77 xenografts were treated with Taxol® (12.5 mg/kg, i.p. in 0.5 ml isotonic saline) every 2 days (according to the report of J. Riondel et al., Anticancer Res. 8:387-90, 1988) or with cisplatin (3.0 mg/kg of DDP i.p., once per week for four weeks, in isotonic saline, according to the report of P. A. Andrews et al., Cancer Commun. 2:93-100, 1990). Tumour size was estimated at 5, 10, 17, 24, and 38 days, by external caliper measurement. Animals were humanely euthanized after the 38 day tumour measurement.

[2] = tested on: DMS-114 human SCLC cell line; assay: In vitro tumor cell growth inhibition, cell count after 3 days; format: cell-based
Description: (§1) Cells were counted after 3 days in culture and at a cell density of no more than 80%.
(§2) In vitro inhibition of small cell lung cancer (SCLC) cell lines by the compound of formula 1A was done with standard human tumor cells (established cell lines available from the American Type Tissue culture collection). […] Cells were counted after 3 days in culture and at a cell density of no more than 80%.
(§3) Briefly, cells were plated in plastic tissue culture plates and grown under standard conditions for each cell line, in carbon dioxide/oxygen atmosphere in plastic tissue culture plates, in the presence of COTI-4 or COTI-4A compounds at 35° C. for 3 days. Control cultures were treated with vehicle minus compound. Cells were counted after 3 days in culture and at a cell density of no more than 80%. The following cell lines, obtained from the National Cancer Institute, were tested: human SCLC cell lines DMS 153, DMS114, SHP77; human NSCLC cell lines H226, A460, A549; human breast cancer cell lines T47D, MCF7; human colon cancer cell line HT29; and, human Leukemia cell lines K562, HL60.

[3] = tested on: DMS-153 human SCLC cell line; assay: as above; format: cell-based; settings: for IC50: DMS-153 SCLC cells, 3 days, 35° C.
Description: as §1, §2, §3

[4] = tested on: SHP-77 human SCLC cell line; assay: as above; format: cell-based; settings: for IC50: Homo sapiens
Description: as §1, §2, §3

[5] = tested on: A460 large cell carcinoma-derived cells (NSCLC; also printed H460); assay: as above; format: cell-based; settings: Homo sapiens
Description: (§4) In vitro inhibition of non-small cell lung cancer (NSCLC) cell lines by the compound of Formula 1B (COTI-4) was evaluated. […] Cells were counted after 3 days in culture and at a cell density of no more than 80%.
(§5) In vitro inhibition of non-small cell lung cancer (NSCLC) cell lines by the compound of Formula 1A is evaluated. […] Cells are counted after 3 days in culture and at a cell density of no more than 80%.
as §3

[6] = tested on: A549 adenocarcinoma-derived cells (NSCLC); assay: as above; format: cell-based; settings: Homo sapiens
Description: as §4, §5, §3

[7] = tested on: H226 squamous cell carcinoma-derived cells (NSCLC); assay: as above; format: cell-based; settings: Homo sapiens
Description: as §4, §5, §3

[8] = tested on: human small cell lung cancer cell lines (DMS-114, DMS-153, SHP-77); assay: In vitro inhibition of SCLC cell lines, summary statements; format: cell-based
Description: as §1, §2

[9] = tested on: human non-small cell lung cancer cell lines (A549, H226, A460); assay: In vitro inhibition of NSCLC cell lines, summary statements; format: cell-based; settings: across NSCLC cell lines, read-out: IC50 values, inhibits growth and/or kills NSCLC cells
Description: (§6) In vitro inhibition of non-small cell lung cancer (NSCLC) cell lines by the compound of Formula 1B (COTI-4) was evaluated. Standard numbers of human tumor cells (established cell lines available from the American Type Tissue culture collection) were plated in plastic tissue culture plates and grown under standard conditions for each cell line, in carbon dioxide/oxygen atmosphere in plastic tissue culture plates, in the presence of COTI-4 (0-1 mM) or Gleevec® ([…]) at 35° C. for 3 days. Control cultures were treated with vehicle minus compound or Gleevec®. Cells were counted after 3 days in culture and at a cell density of no more than 80%.
as §6, with “Formula 1A is” for “Formula 1B (COTI-4) was”, “of compounds of formula 1A” for “of COTI-4”, “cultures are” for “cultures were”, “Cells are” for “Cells were”

[10] = tested on: HL60 human Leukemia cell line; assay: In vitro IC50 against cancer cell lines; format: cell-based; settings: HL-60, 72 h, HL60 leukemia cells, 3 days, 35° C.
Description: (§7) Briefly, cells were plated in plastic tissue culture plates and grown under standard conditions for each cell line, in carbon dioxide/oxygen atmosphere in plastic tissue culture plates, in the presence of COTI-4 or COTI-4A compounds at 35° C. for 3 days. Control cultures were treated with vehicle minus compound. Cells were counted after 3 days in culture and at a cell density of no more than 80%.

[11] = tested on: HT29 human colon cancer cell line; assay: In vitro IC50 against cancer cell lines; format: cell-based; settings: HT-29, 72 h, HT29 colorectal cancer cells, 3 days, 35° C.
Description: as §7

[12] = tested on: K562 human Leukemia cell line; assay: In vitro IC50 against cancer cell lines; format: cell-based; settings: 72 h, K562 leukemia cells, 3 days, 35° C.
Description: as §7

[13] = tested on: MCF7 human breast cancer cell line; assay: In vitro IC50 against cancer cell lines; format: cell-based; settings: 72 h, MCF7 breast cancer cells, 3 days, 35° C.
Description: as §7

[14] = tested on: T47D human breast cancer cell line; assay: In vitro IC50 against cancer cell lines; format: cell-based; settings: 72 h, T47D breast cancer cells, 3 days, 35° C.
Description: as §7

[15] = Escalating dose acute toxicity study in mice; format: in vivo; settings: mice, 4, 8, 16 mg/kg, alternate day IP injections for 28 days
Description: An escalating dose acute toxicity study was conducted with COTI-2, COTI-4 (Formula 1B) and COTI-219. Standard lab mice were divided into four treatment groups (control, 4, 8, 16 mg/kg) with four animals per group. It should be noted that the highest dose was approximately 10 times the estimated effective dose. Mice were given alternate day IP injections for 28 days.

[16] = Homo sapiens, DMS-114, actual in-vitro data, logarithm of IC50, negative, read-out: DMS114 (Log IC50) (converted)
[17] = SHP77, 72 h, SHP-77 SCLC cells, 3 days, 35° C., read-out: IC50
[18] = SHP77, actual in-vitro data, logarithm of IC50, negative, read-out: SHP-77 (Log IC50) (converted)
[19] = NCI-H460, 72 h, A460 NSCLC cells, 3 days, 35° C., read-out: IC50
[20] = NCI-H460, actual in-vitro data, logarithm of IC50, negative, read-out: H460 (Log IC50) (converted)
[21] = 72 h, A549 NSCLC cells, 3 days, 35° C., read-out: IC50
[22] = A549, actual in-vitro data, logarithm of IC50, negative, read-out: A549 (Log IC50) (converted)
[23] = NCI-H226, 72 h, H226 NSCLC cells, 3 days, 35° C., read-out: IC50
[24] = NCI-H226, actual in-vitro data, logarithm of IC50, negative, read-out: H226 (Log IC50) (converted)

Compound: S=C(N/N=C1/CCCc2cccnc21)N1CCN(c2ccccn2)CC1 [COTI-2]
- maximum number of tumours versus control, saline-treated mice [1]: lower than that in control
- mean tumour size versus saline-treated mice [1]: significantly lower

Compound: CN1CCN(C(=S)NN=C2c3ncccc3-c3cccnc32)CC1 [COTI-219]
- maximum number of tumours versus control, saline-treated mice [1]: lower than that in control

Compound: CN1CCN(C(=S)NN=C(c2ccccc2)c2ccnnc2)CC1 [Formula 1A, 4-methyl-N′-[phenyl(pyridazin-4-yl)methylidene]piperazine-1-carbothiohydrazide]
- times more effective in vitro than Gleevec® ([2]; DMS-114): about 100
- IC50 ([2]; DMS-114 SCLC cells, 3 days, 35° C., listed as COTI-4A, read-out: IC50): 650 nM
- IC50 ([2]; Homo sapiens, DMS-114, 72 h, DMS-114 SCLC cells, 3 days, 35° C., read-out: IC50): < 1000 nM
- IC50 [2, 16]: 650 nM
- times more effective in vitro than Gleevec® ([3]; DMS-153): about 100
- IC50 [4, 17]: 10 µM
- IC50 [4, 18]: 10.7 µM
- effectiveness relative to Gleevec® ([4]; SHP-77): about twice as effective
- IC50 [5, 19]: 100 µM
- IC50 [5, 20]: 72.4 µM
- IC50 [6, 21]: 1.5 µM
- IC50 [6, 22]: 1.57 µM
- IC50 [7, 23]: 90 µM
- IC50 [7, 24]: 63.5 µM
- IC50 ([8]; Homo sapiens, across SCLC cell lines, depending on cell line tested, read-out: IC50 values, inhibits growth and/or kills SCLC cells): ≥ 650 nM
- IC50 [9]: ≥ 1500 nM
- melting point: 141 to 143 °C

Compound: CN1CCN(C(=S)NN=C(c2ccccn2)c2ccccn2)CC1 [Formula 1B, N′-(dipyridin-2-ylmethylidene)-4-methylpiperazine-1-carbothiohydrazide]
- IC50 ([2]; DMS-114 SCLC cells, 3 days, 35° C., listed as COTI-4 (1B), read-out: IC50): 30 nM
- IC50 ([2]; DMS-114 SCLC cells, 3 days, 35° C., listed as COTI-4M05, read-out: IC50): 30 nM
- IC50 [2, 16]: 30 nM
- IC50 ([3]; listed as COTI-4 (1B)): 130 nM
- IC50 ([3]; listed as COTI-4M05): 130 nM
- IC50 [4, 17]: 0.173 µM
- IC50 [4, 18]: 0.173 µM
- IC50 [5, 19]: 5.1 µM
- IC50 [5, 20]: 5.11 µM
- IC50 [6, 21]: 6.8 µM
- IC50 [6, 22]: 6.81 µM
- IC50 [7, 23]: 2.5 µM
- IC50 [7, 24]: 2.5 µM
- IC50 [10]: 318 nM
- IC50 [11]: 83 nM
- IC50 [12]: 95 nM
- IC50 [13]: 291 nM
- IC50 [14]: 224 nM
- times more effective than Gleevec® against these cell lines in vitro ([8]; 3 human small cell lung cancer cell lines): over 100
- IC50 [9]: ≥ 2500 nM
- mean tumor volume [1]: 6.2 mm^3
- maximum number of tumours versus control, saline-treated mice [1]: lower than that in control
- mean tumour size versus saline-treated mice [1]: significantly lower
- acute toxicity / adverse events [15]: safe and non-toxic at all dosage levels

Compound: CC(=O)O[C@H]1C(=O)[C@@]2(C)[C@H]([C@H](OC(=O)c3ccccc3)[C@]3(O)C[C@H](OC(=O)[C@H](O)[C@@H](NC(=O)c4ccccc4)c4ccccc4)C(C)=C1C3(C)C)[C@]1(OC(C)=O)CO[C@@H]1C[C@@H]2O [Taxol®, paclitaxel]
- mean tumor volume [1]: 183 mm^3
- maximum number of tumours versus control, saline-treated mice [1]: lower than that in control
- mean tumour size versus saline-treated mice [1]: significantly lower

Compound: N.N.[Cl][Pt][Cl] [cisplatin]
- mean tumor volume [1]: 132±26 mm^3
- maximum number of tumours versus control, saline-treated mice [1]: lower than that in control
- mean tumour size versus saline-treated mice [1]: significantly lower
